The nature of test [1]: alpha-synuclein stem-loop luciferase translation blockers – H4 neuroglioma cells, luminescence, confirmation (AID 1988). Type of test: functional, cell-based.
Test [2] is described as follows: Counterscreen for antagonists of the orexin 1 receptor (OX1R; HCRTR1): Fluorescence-based cell-based high throughput dose response assay to identify antagonists of the parental CHO cell line. [Related pubchem assays (depositor defined):AID434989, AID435008, AID463079, AID485270, AID492963, AID492964, AID492965, AID493232, AID504699, AID504701]. Type of test: functional. For orientation: A counterscreen serves to expose hits that act by an unwanted route or on another target.

Test [3] is described as follows: Luminescence Cell-Based Dose Response HTS to Identify Inhibitors of 5'UTR Stem-Loop Driven Prion Protein mRNA Translation in H4 Neuroglioblastoma Cells. [Related pubchem assays: 1827 (Project Summary), 1813 (Primary HTS)]. Type of test: functional.
A further test relates to CHO-K1. In words: Counterscreen for antagonists of the orexin 1 receptor (OX1R; HCRTR1): Homogeneous time resolved fluorescence (HTRF)-based cell-based dose response assay to identify antagonists of the parental CHO-K1 cell line. [Related pubchem assays (depositor defined):AID434989, AID435008, AID463079, AID485270, AID492963, AID492964, AID492965, AID493232, AID504699, AID504701]. Type of test: functional. To be noted: Cricetulus griseus.

The target in test [4] is T1, Orexin receptor type 2 (Homo sapiens, UniProt O43614). In words: Counterscreen assay for antagonists of the orexin 1 receptor (OX1R; HCRTR1): Fluorescence-based cell-based dose response assay for antagonists of the orexin 2 receptor (OX2R; HCRTR2), run by assay provider. Format: functional.
Test [5] concerns the target T2, Orexin/Hypocretin receptor type 1 (Homo sapiens, UniProt O43613).
T2 sequence (O43613 whole entry): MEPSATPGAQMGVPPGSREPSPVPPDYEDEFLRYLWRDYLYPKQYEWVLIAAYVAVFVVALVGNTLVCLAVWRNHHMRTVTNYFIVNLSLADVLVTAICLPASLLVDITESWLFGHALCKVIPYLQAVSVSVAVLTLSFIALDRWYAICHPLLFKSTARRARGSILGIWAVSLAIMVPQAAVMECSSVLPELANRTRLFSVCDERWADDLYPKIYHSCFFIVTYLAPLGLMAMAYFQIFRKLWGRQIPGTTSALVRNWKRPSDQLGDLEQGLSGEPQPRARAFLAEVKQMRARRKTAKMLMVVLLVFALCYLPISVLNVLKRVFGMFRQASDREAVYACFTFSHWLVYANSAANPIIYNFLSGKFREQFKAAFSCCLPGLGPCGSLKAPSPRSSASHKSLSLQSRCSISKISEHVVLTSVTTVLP
In words: Fluorescence-based cell-based high throughput dose response assay for antagonists of the orexin 1 receptor (OX1R; HCRTR1). [Related pubchem assays (depositor defined):AID434989, AID435008, AID463079, AID485270, AID492963, AID492964, AID492965, AID493232, AID504717, AID504718]. Format: functional.

Test [6] has as its target T1, Orexin receptor type 2. In words: Counterscreen assay for antagonists of the orexin 1 receptor (OX1R; HCRTR1): Homogeneous Time Resolved Fluorescence (HTRF)-based cell-based dose response assay for antagonists of the orexin 2 receptor (OX2R; HCRTR2), run by assay provider. Type of test: functional.
Test [7] has as its target T2, Orexin/Hypocretin receptor type 1. The experiment in a line: Homogeneous Time Resolved Fluorescence (HTRF)-based cell-based high throughput dose response assay for antagonists of the orexin 1 receptor (OX1R; HCRTR1). [Related pubchem assays (depositor defined):AID434989, AID435008, AID463079, AID485270, AID492963, AID492964, AID492965, AID493232, AID504717, AID504718]. Format: functional.

Test [8] is described as follows: luciferase reporter signal suppression in cells – H4 neuroglioma cells, luminescence, dose response (AID 1990). Type of test: functional, cell-based.
A short description of test [9]: THP-1 cell cytotoxicity, cytotoxicity control, set 6 (AID 602433). Type of test: functional. The settings on record: Mycobacterium tuberculosis.
Test [10] in a line: viability loss in Vero cells – cell-based, purified and synthesized samples, set 8, cytotoxicity control for M. tuberculosis inhibitor project (AID 602431). Format: functional. The settings on record: Mycobacterium tuberculosis.
Test [11] deals with Glycogen synthase kinase-3 alpha (Homo sapiens, UniProt P49840). The experiment in a line: GSK3A enzyme blockers, homolog specificity check – biochemical, microfluidics, dry powder samples, set 2, selectivity assay for GSK3beta inhibitor project, dose response (AID 623978). Format: functional.
The target of test [12] is Cyclin-dependent kinase 5/CDK5 activator 1 (Homo sapiens, UniProt Q00535). The experiment in a line: inhibitors of human CDK5 activity – biochemical, microfluidic mobility shift, dry powder, set 2, selectivity assay for GSK3beta inhibitor project, dose response (AID 623979). Format: functional.
Test [13] has as its target Glycogen synthase kinase-3 beta (Homo sapiens, UniProt P49841). The experiment in a line: inhibition of human GSK3B activity – biochemical, microfluidics, dry powder samples, set 2, dose response (AID 623989). Type of test: functional.

Broadly, the EC50 is the midpoint of the concentration-response curve. In general, IC50 refers to the point on the concentration scale where inhibition reaches its midpoint. Broadly, the CC50 is the concentration at which the toxic effect on the cells reaches its halfway point. Usually AC50 stands for the midpoint of the concentration-response curve, whichever way the signal moves.

The structures appear in SMILES notation. Activity calls are given as the source filed them.

T1 sequence (O43614 whole entry): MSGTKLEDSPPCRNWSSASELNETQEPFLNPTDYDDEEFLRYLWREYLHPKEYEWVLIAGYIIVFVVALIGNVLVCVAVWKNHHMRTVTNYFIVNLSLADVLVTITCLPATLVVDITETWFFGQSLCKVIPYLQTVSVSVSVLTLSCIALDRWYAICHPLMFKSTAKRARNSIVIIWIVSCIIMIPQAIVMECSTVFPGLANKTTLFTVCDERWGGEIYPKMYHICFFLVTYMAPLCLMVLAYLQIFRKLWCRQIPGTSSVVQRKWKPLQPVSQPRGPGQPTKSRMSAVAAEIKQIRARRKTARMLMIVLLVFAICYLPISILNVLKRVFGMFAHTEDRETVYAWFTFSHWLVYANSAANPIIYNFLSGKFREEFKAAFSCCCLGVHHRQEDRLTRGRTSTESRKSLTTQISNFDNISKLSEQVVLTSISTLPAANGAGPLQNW
Chain of Cyclin-dependent kinase 5/CDK5 activator 1 (Q00535 whole entry): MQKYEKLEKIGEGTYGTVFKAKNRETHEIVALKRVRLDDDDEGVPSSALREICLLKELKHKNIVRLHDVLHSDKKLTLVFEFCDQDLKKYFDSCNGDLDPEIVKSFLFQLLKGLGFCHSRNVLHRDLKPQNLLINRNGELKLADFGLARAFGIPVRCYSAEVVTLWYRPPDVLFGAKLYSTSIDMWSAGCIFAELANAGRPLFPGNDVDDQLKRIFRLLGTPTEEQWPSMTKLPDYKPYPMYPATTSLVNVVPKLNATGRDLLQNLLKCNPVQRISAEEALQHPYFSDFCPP
Chain of Cyclin-dependent kinase 5/CDK5 activator 1 (Q15078 whole entry, further chain): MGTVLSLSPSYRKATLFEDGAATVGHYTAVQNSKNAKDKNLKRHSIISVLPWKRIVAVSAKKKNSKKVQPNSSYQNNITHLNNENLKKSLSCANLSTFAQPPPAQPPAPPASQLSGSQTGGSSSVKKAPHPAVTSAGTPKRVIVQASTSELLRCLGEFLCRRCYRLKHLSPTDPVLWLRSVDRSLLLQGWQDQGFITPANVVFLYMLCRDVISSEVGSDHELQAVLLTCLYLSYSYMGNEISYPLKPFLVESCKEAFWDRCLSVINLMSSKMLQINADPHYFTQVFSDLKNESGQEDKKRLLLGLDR
Chain of Glycogen synthase kinase-3 alpha (P49840 whole entry): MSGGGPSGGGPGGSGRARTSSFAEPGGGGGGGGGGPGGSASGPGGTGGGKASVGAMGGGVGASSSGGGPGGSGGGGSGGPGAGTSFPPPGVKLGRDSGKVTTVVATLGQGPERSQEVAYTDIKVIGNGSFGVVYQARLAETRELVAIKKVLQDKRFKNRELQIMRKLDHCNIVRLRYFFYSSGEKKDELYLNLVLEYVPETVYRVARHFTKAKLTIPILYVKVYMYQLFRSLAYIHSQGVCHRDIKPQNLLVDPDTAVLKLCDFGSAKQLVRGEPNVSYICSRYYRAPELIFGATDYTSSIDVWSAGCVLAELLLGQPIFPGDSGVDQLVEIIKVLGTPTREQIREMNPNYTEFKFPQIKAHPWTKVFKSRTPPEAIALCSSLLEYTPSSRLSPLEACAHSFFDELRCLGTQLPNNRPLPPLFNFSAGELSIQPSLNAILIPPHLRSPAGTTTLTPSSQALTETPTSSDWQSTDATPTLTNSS
Chain of Glycogen synthase kinase-3 beta (P49841 whole entry): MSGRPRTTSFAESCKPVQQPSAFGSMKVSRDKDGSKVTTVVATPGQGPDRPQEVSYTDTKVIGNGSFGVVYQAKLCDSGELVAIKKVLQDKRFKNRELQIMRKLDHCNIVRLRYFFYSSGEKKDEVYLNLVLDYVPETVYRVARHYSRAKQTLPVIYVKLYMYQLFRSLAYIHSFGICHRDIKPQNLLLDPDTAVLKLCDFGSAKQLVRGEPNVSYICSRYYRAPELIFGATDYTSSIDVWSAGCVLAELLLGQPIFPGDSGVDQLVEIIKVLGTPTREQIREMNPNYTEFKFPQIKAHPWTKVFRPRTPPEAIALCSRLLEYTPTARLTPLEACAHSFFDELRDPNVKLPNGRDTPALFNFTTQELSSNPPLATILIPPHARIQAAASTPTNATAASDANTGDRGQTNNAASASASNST

Regarding `CN1C(=O)C2(N=c3ccccc3=N2)c2ccccc21`, the EC50 in test [1] was > 120 µM (not active); in test [3] it was > 120 µM (not active); in test [8], 79.5 µM (active). In addition, the IC50 is > 49.7 µM (inactive) in [2]; > 66.2 µM (inactive) with CHO-K1; > 88.8 µM (inactive) on Orexin receptor type 2 [4]; 13.8 µM (inactive) in test [5]; > 50 µM (inactive) on Orexin receptor type 2 [6]; 3.22 µM (active) in [7].
For the compound `COc1ccc(NC(=O)NCc2ccc(C(=O)N3CCC(c4ccccc4)CC3)cc2)cc1`, the cytotoxic concentration (CC50) in test [9] is > 98.9 µM (active); in test [10] it was 91.3 µM (active).
On to `Cc1cccc(C(=O)N[C@H]2C[C@@H](n3cnc(NC(=O)Cc4cccc5ccccc45)c3)C2)n1`, for which the AC50 in [11] is 0.361 µM (active); in [12], 0.038 µM (active); in test [13] it was 0.107 µM (active).

The record behind these values is ChEMBL document CHEMBL1201862, “PubChem BioAssay data set” (2004).
